Results published in patent publication US4308256A, “Method of inducing analgesia” (American Home Products Corporation, priority 1980, dated 1981).
Bridge positions count the residues as written; N and C are the ends. Square brackets hold non-standard residues; d marks the D form. Peptide text beside a SMILES is read from it. * marks the point of attachment. Ileψ(thiazoline)Cys = CC[C@H](C)[C@H](N)C1=N[C@H](C(=O)*)CS1; dOrn = NCCC[C@@H](N)C(=O)O

Experiments:
[1] = system: aminopeptidase; conditions: cited from earlier work
[2] = system: male Charles River rats; assay: D'Amour-Smith rat tail-flick procedure (radiant heat, 8 second cut-off), intraventricular injection; assay type: in vivo; conditions: for Tail-flick latency: leucine-enkephalin intraventricular
Protocol: Intraventricular cannulae, made of 27-gauge stainless steel tubing, are implanted in 300-400 g. male Charles River rats under pentobarbital anesthesia. After a recovery period of at least one week, the rats are restrained in a wire-mesh cylindrical chamber so that the tip of the tail can be positioned at the focal point of a radiant heat source. After an acclimatistation period of 5 minutes, the lamp is turned on and an electric clock activated. Movement of the tip of the tail exposes a photocell to the lamp, which turns off the thermal stimulus and stops the clock. If a rat fails to move its tail within 8 seconds, the heat is automatically turned off to prevent blistering. The intensity of the lamp is adjusted in each case to produce at least three baseline tail-flick latencies of 2.5-4.5 seconds. Tests are initially made every 2 minutes, then every 5 minutes and finally every 15 minutes.
Initially, using the above outlined procedure, the effects of intraventricularly administered leucine-enkephalin are tested in rats according to the above procedure.
The rat tail flick procedure is repeated, first by the simultaneous intraventricular injection of both leucine-enkephalin and bestatin and then by the initial injection of bestatin followed one hour later by the injection of leucine-enkephalin.
The above procedure is repeated again, however, the bestatin is administered first and then one hour later the leucine-enkephalin is administered.
The effects of bestatin alone are tested in rats according to the rat tail flick procedure.

[3] = system: rats; conditions: fully reversible by naloxone; cited from earlier work
[4] = exogenously (intraventricularly) administered leucine-enkephalin alone, rats

CC[C@H](C)[C@H](N)C1=N[C@H](C(=O)N[C@@H](CC(C)C)C(=O)N[C@H](CCC(=O)O)C(=O)N[C@H](C(=O)N[C@H]2CCCCNC(=O)[C@H](CC(N)=O)NC(=O)[C@@H](CC(=O)O)NC(=O)[C@H](Cc3cnc[nH]3)NC(=O)[C@@H](Cc3ccccc3)NC(=O)[C@H]([C@@H](C)CC)NC(=O)[C@@H](CCCN)NC2=O)[C@@H](C)CC)CS1 [bacitracin] ({Ileψ(thiazoline)Cys}-L[dE]IK[dOrn]I[dF]H[dD]N; lactam 4-C)
Inhibition of "aminopeptidase"-catalyzed breakdown of enkephalins [1]: effective inhibitors

CC(C)C[C@H](NC(=O)[C@H](Cc1ccccc1)NC(=O)CNC(=O)CNC(=O)[C@@H](N)Cc1ccc(O)cc1)C(=O)O [leucine-enkephalin, H-Tyr-Gly-Gly-Phe-Leu-OH, reference compound]
Time after which the effect dissipates rapidly [2, 4]: 10 to 12 min | Time to peak analgesic effect [2, 4]: 6 to 8 min | Tail-flick latency ([2]; Rat 1, 2 min): 8.00 s | Tail-flick latency ([2]; Rat 1, 4 min): 8.00 s | Tail-flick latency ([2]; Rat 1, 6 min): 8.00 s | Tail-flick latency ([2]; Rat 1, 8 min): 8.00 s | Tail-flick latency ([2]; Rat 1, 10 min): 6.15 s | Tail-flick latency ([2]; Rat 1, 12 min): 5.76 s | Tail-flick latency ([2]; Rat 1, 14 min): 2.69 s | Tail-flick latency ([2]; Rat 2, 2 min): 8.00 s | Tail-flick latency ([2]; Rat 2, 4 min): 8.00 s | Tail-flick latency ([2]; Rat 2, 6 min): 5.11 s | Tail-flick latency ([2]; Rat 2, 8 min): 4.24 s | Tail-flick latency ([2]; Rat 2, 10 min): 3.48 s | Tail-flick latency ([2]; Rat 2, 12 min): 4.15 s | Tail-flick latency ([2]; Rat 3, 2 min): 4.88 s | Tail-flick latency ([2]; Rat 3, 4 min): 8.00 s | Tail-flick latency ([2]; Rat 3, 6 min): 7.50 s | Tail-flick latency ([2]; Rat 3, 8 min): 8.00 s | Tail-flick latency ([2]; Rat 3, 10 min): 4.50 s | Tail-flick latency ([2]; Rat 3, 12 min): 3.49 s | Tail-flick latency ([2]; Rat 3, 14 min): 3.04 s | Tail-flick latency ([2]; Rat 4, 2 min): 6.47 s | Tail-flick latency ([2]; Rat 4, 4 min): 6.97 s | Tail-flick latency ([2]; Rat 4, 6 min): 6.62 s | Tail-flick latency ([2]; Rat 4, 8 min): 7.17 s | Tail-flick latency ([2]; Rat 4, 10 min): 6.81 s | Tail-flick latency ([2]; Rat 4, 12 min): 7.52 s | Tail-flick latency ([2]; Rat 4, 14 min): 3.06 s | Analgesia after injection into the brain ventricle [3]: profound analgesia

COc1ccc(C[C@H](N)C(=O)N[C@H]2[C@@H](O)[C@H](n3cnc4c(N(C)C)ncnc43)O[C@@H]2CO)cc1 [puromycin]
Inhibition of "aminopeptidase"-catalyzed breakdown of enkephalins [1]: effective inhibitors

H-Tyr-Gly-Gly-Phe-Met-OH [methionine-enkephalin]
Analgesia after injection into the brain ventricle [3]: profound analgesia
